Reference: patent publication US10602680B2, “Method of internal seed disinfection by combining seed priming with vacuum infiltration” (priority 2014, dated 2020)

How the values were obtained:
[1] = tested on: Acidovorax avenae subsp. citrulli; experiment: 10 minute soak of externally infected diploid watermelon seeds in antibiotic solutions; format: in vivo
Protocol: The effectiveness of using an antibiotic solution combined with matrix priming for disinfecting triploid watermelon seeds internally infected with Acidovorax avenae subsp. citrulli has been tested. In order to screen for effective antibiotics, diploid watermelon seeds were obtained which were externally infected with Acidovorax avenae subsp. citrulli. […] Infected seeds were soaked for 10 minutes in antibiotic solutions of 100 ppm, 250 ppm, and 500 ppm of the above antibiotics. Dosage was chosen based on information reported by Layne Wade (21st Annual Tomato Disease Workshop, Asheville, N.C., November 2006) which stated that the MIC (minimum inhibitory concentration) of Kasugamycin on Acidovorax avenae subsp. citrulli is greater than 100 ppm.

[2] = tested on: triploid watermelon seeds; experiment: Phytotoxicity screening by vacuum infiltration followed by matrix priming
Protocol: Step 110 involves choosing which species of seed will be sought to be disinfected. […] Thus, in step 130, a phytotoxicty screening is carried out on the chosen seeds using the chosen treatment. […] For example, the inventors screened the antibiotic Oxytetracycline using the method of adding chemicals to the water used in matrix priming (Eastin, J. A., 2000, U.S. Pat. No. 6,076,301) and the method of the present invention. Water containing 500 ppm of Oxytetracycline was used to prime triploid watermelon seeds using matrix priming. Further, the same seed was treated with vacuum infiltration using 500 ppm Oxytetracycline solutions for 6 hours, which was followed by a matrix priming using water. For a control, seed of the same lot was treated using vacuum infiltration with water, followed by matrix priming using water. Also, untreated seeds were preserved as an additional control.

[3] = tested on: Acidovorax avenae subsp. citrulli; conditions: on Acidovorax avenae subsp. citrulli; reported by Layne Wade, 2006; cited from earlier work
[4] = tested on: Acidovorax avenae subsp. citrulli; experiment: 30 minute soak of infected diploid watermelon seeds, screening against the target disease; format: in vivo
Excerpt: Substances with suitable levels of phytotoxicity are then screened for their affectivity against target diseases. For an example, the inventors screened the antibiotic piperacillin/tazobactam, and electrolyzed water for its affectivity against Acidovorax avenae subsp. citrulli on diploid watermelons seeds. […] This serves only as an example, and any method of screening can be used either in vivo or in vitro to screen for affectivity against target diseases and appropriate dose.

[5] = tested on: Xanthomonas campestris pv. Campestris; experiment: Osmotic priming with PEG followed by vacuum infiltration of infected broccoli seeds: presence of disease; format: in vivo; conditions: osmotic priming for 4 days followed by 6 hours of vacuum infiltration with 500 ppm
Protocol: Determination of proper length of priming treatment and vacuum filtration treatment are performed on an empirical basis. For an example, the inventors identified proper treatment length in the following manner. A lot of broccoli seeds infected with Xanthomonas campestris pv. Campestris were treated with the following treatment regiments. […] Seeds were tested after treatments for both germination and presence of the disease Xanthomonas campestris pv. Campestris.

[6] = tested on: Acidovorax avenae subsp. citrulli; conditions: 1% solution, soak for 15 minutes; cited from earlier work
[7] = further screening using the same format, concentrations not given

| Molecule | elimination of bacteria on seeds ([1]; 250 ppm) | elimination of bacteria on seeds ([1]; 500 ppm) | phytotoxicity ([2]; in vivo) | further results |
| --- | --- | --- | --- | --- |
| Colistin sulphate | effective | effective |  | phytotoxicity [2, 7]: mild phytotoxic effects |
| Trimethoprim-sulfamethoxazole | effective | effective |  |  |
| C[C@H]1O[C@H](O[C@H]2[C@H](O)[C@@H](O)[C@@H](O)[C@H](O)[C@@H]2O)[C@@H](N)C[C@@H]1NC(=N)C(=O)O [Kasugamycin] | effective | effective |  | MIC (minimum inhibitory concentration) [3]: greater than 100 ppm |
| Piperacillin/tazobactam | effective | effective |  | elimination of the bacteria ([4]; 100 ppm): not effective; elimination of the bacteria ([4]; 250 ppm): effective; eradication of seed borne disease [5]: eradicated |
| CO/N=C(\C(=O)N[C@@H]1C(=O)N2C(C(=O)O)=C(CSc3nc(=O)c(=O)[nH]n3C)CS[C@H]12)c1csc(N)n1 [Ceftriaxone sodium] |  |  | no phytotoxic effects | elimination of bacteria on seeds ([1]; any dose (100 ppm, 250 ppm, 500 ppm)): not effective |
| CCn1cc(C(=O)O)c(=O)c2cc3c(cc21)OCO3 [Oxalinic acid] | effective | effective | phytotoxic |  |
| O=C(N[C@H](CO)[C@H](O)c1ccc([N+](=O)[O-])cc1)C(Cl)Cl [Chloramphenicol] | effective | effective | phytotoxic |  |
| O=P([O-])([O-])[O-].[Na+].[Na+].[Na+] [trisodium phosphate] |  |  |  | phytotoxicity [2, 7]: phytotoxic |
| [Ca+2].[O-]Cl.[O-]Cl [calcium hypochlorite] |  |  |  | elimination from watermelon seeds [6]: not effective |
